Assay results published in ChEMBL document CHEMBL1157177, “Trivalent, Gal/GalNAc-containing ligands designed for the asialoglycoprotein receptor” (Bioorg Med Chem, 2008).
pKi: −log10 of the molar value.

Test: Displacement of [125I]asialoorosomucoid from ASGP receptor

pKi	SMILES
8.70	CC(=O)N[C@H]1[C@H](OCCOCCOCCNC(=O)CCOCC(COCCC(=O)NCCOCCOCCO[C@@H]2O[C@H](CO)[C@H](O)[C@H](O)[C@H]2NC(C)=O)(COCCC(=O)NCCOCCOCCO[C@@H]2O[C@H](CO)[C@H](O)[C@H](O)[C@H]2NC(C)=O)NC(=O)CN)O[C@H](CO)[C@H](O)[C@@H]1O
7.03	O=C(CCCCO[C@@H]1O[C@H](CO)[C@H](O)[C@H](O)[C@H]1O)NCCCNC(=O)CCOCC(COCCC(=O)NCCCNC(=O)CCCCO[C@@H]1O[C@H](CO)[C@H](O)[C@H](O)[C@H]1O)(COCCC(=O)NCCCNC(=O)CCCCO[C@@H]1O[C@H](CO)[C@H](O)[C@H](O)[C@H]1O)NC(=O)CNC(=O)OCc1ccccc1
6.70	COC(=O)CCCCC(=O)NCC(=O)NC(COCOCCOCCOCCOCCO[C@@H]1O[C@H](CO)[C@H](O)[C@H](O)[C@H]1O)(COCOCCOCCOCCOCCO[C@@H]1O[C@H](CO)[C@H](O)[C@H](O)[C@H]1O)COCOCCOCCOCCOCCO[C@@H]1O[C@H](CO)[C@H](O)[C@H](O)[C@H]1O
